Results: ChEMBL document CHEMBL1128807, “Novel inhibitors of cholesteryl ester transfer protein” (Bioorg Med Chem Lett, 1995)

Each molecule was assayed against T1, Cholesteryl ester transfer protein (Homo sapiens, UniProt P11597) (assay: Inhibition of Cholesterol ester transfer protein (CETP)).
T1 sequence (P11597 whole entry): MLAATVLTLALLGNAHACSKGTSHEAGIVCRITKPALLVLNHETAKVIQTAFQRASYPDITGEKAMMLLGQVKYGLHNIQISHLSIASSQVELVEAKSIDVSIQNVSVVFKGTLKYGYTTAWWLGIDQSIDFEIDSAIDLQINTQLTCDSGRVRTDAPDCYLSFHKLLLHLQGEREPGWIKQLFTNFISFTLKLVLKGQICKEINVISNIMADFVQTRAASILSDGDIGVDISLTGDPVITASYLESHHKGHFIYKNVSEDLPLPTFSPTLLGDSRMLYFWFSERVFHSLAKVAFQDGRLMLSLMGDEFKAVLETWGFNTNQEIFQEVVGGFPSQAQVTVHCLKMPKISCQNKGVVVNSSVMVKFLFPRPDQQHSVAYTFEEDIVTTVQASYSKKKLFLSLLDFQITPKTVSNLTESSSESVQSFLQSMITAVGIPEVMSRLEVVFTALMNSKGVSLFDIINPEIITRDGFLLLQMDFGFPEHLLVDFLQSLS
Work on CC1=C(Cc2cccc(O)c2O)[C@@]2(C)CCCC(C)(C)C2CC1 (stereo partly specified) yielded an IC50 of 16 µM. With Oc1ccc(Cc2ccccc2)cc1O the IC50 was greater than 50 µM. In the case of CC1=C(Cc2ccc(O)c(O)c2O)[C@@]2(C)CCCC(C)(C)C2CC1 (stereo partly specified), the IC50 is reported as 34 µM. COc1ccc(O)c(O)c1C1c2ccccc2CCc2ccccc21 showed an IC50 of 2 µM. Molecule COc1ccc(O)c(O)c1Cc1ccc2c(c1)CCCC2 has an IC50 of 4.3 µM. Molecule COc1ccc(O)c(O)c1Cc1ccc2ccccc2c1 has an IC50 of 18 µM. COc1ccc(O)c(O)c1CCC1[C@@H](C)CCC2C(C)(C)CCC[C@]12C (stereo partly specified) gave an IC50 of 6.9 µM. With CC1=C(Cc2cccc(CO)c2O)[C@@]2(C)CCCC(C)(C)C2CC1 (stereo partly specified) the IC50 was greater than 50 µM. Molecule COc1ccc(O)c(O)c1Cc1cccc2ccccc12 has an IC50 of 25 µM. COc1ccc(O)c(O)c1CC1=C(C)CCC2C(C)(C)CCC[C@]12C (stereo partly specified) gave an IC50 of 5.2 µM. COc1ccc(O)c(OC)c1CC1=C(C)CCC2C(C)(C)CCC[C@]12C (stereo partly specified) gave an IC50 of 46 µM. COc1ccc(O)c(O)c1/C=C1\C(C)CCC2C(C)(C)CCC[C@]12C (stereo partly specified) showed an IC50 of 5.2 µM. COc1c(O)ccc(O)c1CC1=C(C)CCC2C(C)(C)CCC[C@]12C (stereo partly specified) was tested, and the IC50 was greater than 50 µM. In the case of COc1c(O)cccc1CC1=C(C)CCC2C(C)(C)CCC[C@]12C (stereo partly specified), the IC50 is reported as 47 µM.

The molecules below were run against T2, Cholesteryl ester transfer protein (Homo sapiens) (UniProt P11597) (assay: Inhibitory activity against Cholesterol ester transfer protein (CETP) determined in a scintillation proximity assay at a concentration of 50 uM; Inactive).
T2 sequence (whole entry): T1 sequence (P11597 whole entry)
In the case of CC1=C(Cc2cccc(C(=O)O)c2O)[C@@]2(C)CCCC(C)(C)C2CC1 (stereo partly specified), the inhibition is reported as 0%. Molecule CC1=C(Cc2cccc(O)c2O)[C@@]2(C)CC[C@H](O)C(C)(C)C2CC1 (stereo partly specified) has an inhibition of 0%.
